According to patent US10316021B2, “Heteroarylphenoxy benzamide kappa opioid ligands” (Pfizer Inc., priority 2016, dated 2019):
“Also recorded” adds a separate entry of the source. Read-outs that look alike come from different tables or passages of the source.

Legend:
[1] = target: T1, human mu opioid receptor (hMOR) (Homo sapiens, UniProt P35372); assay: Mu radioligand binding assay ([3H]diprenorphine, CHO cell membranes)
T1 construct: expressed in transfected cells; host or cells: CHO cells
Experimental: (§1) Kappa and Mu Radioligand Binding Assay:
Binding assays on membranes from CHO cells expressing human kappa or mu opioid receptors were performed according to standard procedures. Frozen cell paste was homogenized in 50 mM Tris HCl buffer (pH 7.4 @ 4 degrees C.) containing 2.0 mM MgCl2 using a Polytron and spun in a centrifuge at 40,000 g for ten minutes. The final pellet was resuspended in assay buffer (50 mM Tris HCl buffer, pH 7.4, containing 1 mM EDTA, 5 mM MgCl2). Incubations were initiated by the addition of membranes to 96-well plates containing test drugs and [^3H]diprenorphine (0.6 nM final concentration for kappa opioid receptor and 0.5 nM final concentration for mu) in a final volume of 250 μl. Non-specific binding was determined by radioligand binding in the presence of a saturating concentration of naltrexone (10 μM). After a one hour incubation period at room temperature, assay samples were rapidly filtered through PEI coated, GF/B fired Unifilter plates (PerkinElmer) and rinsed with ice-cold 50 mM Tris buffer (pH 7.4). Membrane bound [^3H]diprenorphine levels were determined by liquid scintillation counting of the filterplates in Ecolume scintillation fluid. […] Ki values were calculated according to the Cheng Prusoff equation, Ki=IC50/(1+(L/Kd)), where L is the concentration of the radioligand used in the experiment and the Kd value is the dissociation constant for the radioligand (determined previously by saturation analysis).

[2] = target: T2, human kappa opioid receptor (hKOR) (Homo sapiens, UniProt P41145); assay: Kappa radioligand binding assay ([3H]diprenorphine, CHO cell membranes); settings: for Selectivity hMOR/hKOR: selectivity ratio calculated by dividing the hMOR Ki by the hKOR Ki
T2 construct: expressed in transfected cells; host or cells: CHO cells
T2 sequence (P41145 whole entry): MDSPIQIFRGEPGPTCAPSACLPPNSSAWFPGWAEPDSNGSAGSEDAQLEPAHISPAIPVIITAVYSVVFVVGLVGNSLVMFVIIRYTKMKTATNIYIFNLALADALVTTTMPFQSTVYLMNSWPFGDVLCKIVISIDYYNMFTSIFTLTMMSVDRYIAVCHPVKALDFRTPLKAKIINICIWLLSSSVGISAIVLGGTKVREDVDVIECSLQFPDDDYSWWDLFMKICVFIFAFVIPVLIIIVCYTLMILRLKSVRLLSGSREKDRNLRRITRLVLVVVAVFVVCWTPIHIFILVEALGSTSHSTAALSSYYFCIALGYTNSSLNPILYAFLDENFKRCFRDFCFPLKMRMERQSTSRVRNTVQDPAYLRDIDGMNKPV
Experimental: as §1
Binding assays on membranes from CHO cells expressing human kappa or mu opioid receptors were performed according to standard procedures. Frozen cell paste was homogenized in 50 mM Tris HCl buffer (pH 7.4 @ 4 degrees C.) containing 2.0 mM MgCl2 using a Polytron and spun in a centrifuge at 40,000 g for ten minutes. The final pellet was resuspended in assay buffer (50 mM Tris HCl buffer, pH 7.4, containing 1 mM EDTA, 5 mM MgCl2). Incubations were initiated by the addition of membranes to 96-well plates containing test drugs and [^3H]diprenorphine (0.6 nM final concentration for kappa opioid receptor and 0.5 nM final concentration for mu) in a final volume of 250 μl. Non-specific binding was determined by radioligand binding in the presence of a saturating concentration of naltrexone (10 μM). After a one hour incubation period at room temperature, assay samples were rapidly filtered through PEI coated, GF/B fired Unifilter plates (PerkinElmer) and rinsed with ice-cold 50 mM Tris buffer (pH 7.4). Membrane bound [^3H]diprenorphine levels were determined by liquid scintillation counting of the filterplates in Ecolume scintillation fluid. The IC50 value (concentration at which 50% inhibition of specific binding occurs) was calculated using a logistic 4 parameter fit model of the concentration-response data. Ki values were calculated according to the Cheng Prusoff equation, Ki=IC50/(1+(L/Kd)), where L is the concentration of the radioligand used in the experiment and the Kd value is the dissociation constant for the radioligand (determined previously by saturation analysis).

[3] = radioligand binding, [3H]diprenorphine, read-out: hMOR Ki
[4] = radioligand binding, [3H]diprenorphine, read-out: hKOR Ki
[5] = Table 19, geometric mean of 2-6 determinations unless otherwise indicated (Example 3: >=7), read-out: hMOR binding assay Ki
[6] = Table 19, geometric mean of 2-6 determinations unless otherwise indicated (Example 3: >=7), read-out: hKOR binding assay Ki
[7] = Table 20, radioligand binding, read-out: hMOR binding assay Ki
[8] = Table 20, radioligand binding, read-out: hKOR binding assay Ki

T1 sequence (P35372 whole entry): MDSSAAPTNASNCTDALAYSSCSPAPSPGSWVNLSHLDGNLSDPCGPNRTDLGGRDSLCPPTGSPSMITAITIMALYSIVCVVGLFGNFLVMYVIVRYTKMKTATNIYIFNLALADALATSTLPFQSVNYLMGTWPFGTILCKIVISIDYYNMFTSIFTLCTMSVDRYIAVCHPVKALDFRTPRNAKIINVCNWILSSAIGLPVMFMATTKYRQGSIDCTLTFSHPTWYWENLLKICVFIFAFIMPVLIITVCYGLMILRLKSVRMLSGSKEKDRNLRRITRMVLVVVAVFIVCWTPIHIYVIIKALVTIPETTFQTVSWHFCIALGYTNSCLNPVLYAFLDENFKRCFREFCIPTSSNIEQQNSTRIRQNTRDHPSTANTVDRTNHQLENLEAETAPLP

Ki [1, 3] | Ki [2, 4] | Ki [1, 5] | Ki [2, 6] | Structure (SMILES) | also measured
> 564 nM | 145 nM |  |  | COc1nn(C)cc1C1COCCN1Cc1ccc(Oc2ccc(C(N)=O)cc2F)cc1 (single isomer, unassigned) [enantiomer of Example 20, 3-fluoro-4-(4-{[3-(3-methoxy-1-methyl-1H-pyrazol-4-yl)morpholin-4-yl]methyl}phenoxy)benzamide] | 
135 nM | 15.5 nM |  |  | COc1nn(C)cc1C1CCCCN1Cc1ccc(Oc2ccc(C(N)=O)cc2)cc1 (single isomer, unassigned) [enantiomer of Example 21, 4-(4-{[2-(3-methoxy-1-methyl-1H-pyrazol-4-yl)piperidin-1-yl]methyl}phenoxy)benzamide] | 
> 564 nM | 263 nM |  |  | COc1nn(C)cc1C1COCCN1Cc1ccc(Oc2ccc(C(N)=O)cc2)c(F)c1 (single isomer, unassigned) [enantiomer of Example 22, 4-(2-fluoro-4-{[3-(3-methoxy-1-methyl-1H-pyrazol-4-yl)morpholin-4-yl]methyl}phenoxy)benzamide] | 
> 564 nM | 223 nM |  |  | COc1nn(C)cc1C1COCCN1Cc1ccc(Oc2ccc(C(N)=O)cc2)cc1 (single isomer, unassigned) [enantiomer of Example 23, 4-(4-{[3-(3-methoxy-1-methyl-1H-pyrazol-4-yl)morpholin-4-yl]methyl}phenoxy)benzamide] | 
13.7 nM | 0.629 nM |  |  | COc1nn(C)cc1C1CCCN1Cc1ccc(Oc2ccc(C(N)=O)cc2)c(F)c1 (single isomer, unassigned) [enantiomer of Example 32, 4-(2-fluoro-4-{[2-(3-methoxy-1-methyl-1H-pyrazol-4-yl)pyrrolidin-1-yl]methyl}phenoxy)benzamide] | 
308 nM | 28.7 nM |  |  | COc1nn(C)cc1C1CCCN1Cc1ccc(Oc2ccc(C(N)=O)c(O)c2)cc1 (single isomer, unassigned) [enantiomer of Example 33, 2-hydroxy-4-(4-{[2-(3-methoxy-1-methyl-1H-pyrazol-4-yl)pyrrolidin-1-yl]methyl}phenoxy)benzamide] | 
245 nM | 92.8 nM |  |  | Cc1c(C2CCCN2Cc2ccc(Oc3ccc(C(N)=O)cc3F)cc2)cnn1C (single isomer, unassigned) [enantiomer of Example 35, 4-(4-{[2-(1,5-dimethyl-1H-pyrazol-4-yl)pyrrolidin-1-yl]methyl}phenoxy)-3-fluorobenzamide] | 
252 nM | > 119 nM |  |  | Cc1nn(C)nc1C1CCCN1Cc1ccc(Oc2ccc(C(N)=O)cc2)cc1 (single isomer, unassigned) [enantiomer of Example 38, 4-(4-{[2-(2,5-dimethyl-2H-1,2,3-triazol-4-yl)pyrrolidin-1-yl]methyl}phenoxy)benzamide] | 
132 nM | 74.5 nM |  |  | Cc1nn(C)nc1C1CCCN1Cc1ccc(Oc2ccc(C(N)=O)cc2)c(F)c1 (single isomer, unassigned) [enantiomer of Example 39, 4-(4-{[2-(2,5-dimethyl-2H-1,2,3-triazol-4-yl)pyrrolidin-1-yl]methyl}-2-fluorophenoxy)benzamide] | 
> 558 nM | > 388 nM |  |  | Cc1nsc(C2CCCN2Cc2ccc(Oc3ccc(C(N)=O)cc3)cc2)n1 (single isomer, unassigned) [enantiomer of Example 41, 4-(4-{[2-(3-methyl-1,2,4-thiadiazol-5-yl)pyrrolidin-1-yl]methyl}phenoxy)benzamide] | 
120 nM | 111 nM |  |  | COc1cc(C2CCCN2Cc2ccc(Oc3ccc(C(N)=O)cc3)cc2)n(C)n1 (single isomer, unassigned) [enantiomer of Example 46, 4-(4-{[2-(3-methoxy-1-methyl-1H-pyrazol-5-yl)pyrrolidin-1-yl]methyl}phenoxy)benzamide] | 
 |  | 299 nM | 139 nM | Cc1cc(C2CCCN2Cc2ccc(Oc3ccc(C(N)=O)cc3F)cc2)no1 (stereo not shown) [Example 40] | Ki [1, 7]: 299 nM; KOR potency, in words [2]: low KOR potency; Ki [2, 8]: 139 nM; Selectivity hMOR/hKOR [2]: 2.2

Continued, molecule first:

Structure (SMILES) | Ki [1, 3] | Ki [2, 4] | Ki [1, 5] | Ki [2, 6] | also measured
Cc1nn(C)cc1C1CCCN1Cc1ccc(Oc2ccc(C(N)=O)cc2)c(F)c1 (single isomer, unassigned; (+)) [Example 2, (+)-4-(4-{[2-(1,3-Dimethyl-1H-pyrazol-4-yl)pyrrolidin-1-yl]methyl}-2-fluorophenoxy)benzamide] |  |  | 27.8 nM | 3.95 nM | 
COc1nn(C)cc1C1CCCN1Cc1ccc(Oc2ccc(C(N)=O)cc2F)cc1 (single isomer, unassigned; (+)) [Example 9, (+)-3-Fluoro-4-(4-{[2-(3-methoxy-1-methyl-1H-pyrazol-4-yl)pyrrolidin-1-yl]methyl}phenoxy)benzamide] |  |  | > 352 nM | 22.5 nM | 
COc1n[nH]cc1C1CCCN1Cc1ccc(Oc2ccc(C(N)=O)cc2)cc1 (single isomer, unassigned; (+)) [Example 15, (+)-4-(4-{[2-(3-Methoxy-1H-pyrazol-4-yl)pyrrolidin-1-yl]methyl}phenoxy)benzamide] |  |  | 150 nM | 23.2 nM | 
Cc1nn(C)cc1C1CCCN1Cc1ccc(Oc2ccc(C(N)=O)c(O)c2)cc1 (single isomer, unassigned; (+)) [Example 17, (+)-4-(4-{[2-(1,3-Dimethyl-1H-pyrazol-4-yl)pyrrolidin-1-yl]methyl}phenoxy)-2-hydroxybenzamide] |  |  | 108 nM | 27 nM | 
Cc1nn(C)cc1C1CCCN1Cc1ccc(Oc2ccc(C(N)=O)cc2)c(F)c1 (single isomer, unassigned; (-)) [Example 3, (−)-4-(4-{[2-(1,3-Dimethyl-1H-pyrazol-4-yl)pyrrolidin-1-yl]methyl}-2-fluorophenoxy)benzamide] |  |  | 16.9 nM | 0.461 nM | 
COc1n[nH]cc1C1CCCN1Cc1ccc(Oc2ccc(C(N)=O)cc2)cc1 (single isomer, unassigned; (-)) [Example 14, (−)-4-(4-{[2-(3-Methoxy-1H-pyrazol-4-yl)pyrrolidin-1-yl]methyl}phenoxy)benzamide] |  |  | 31.3 nM | 6.08 nM | 
Cc1nn(C)cc1C1CCCN1Cc1ccc(Oc2ccc(C(N)=O)c(O)c2)cc1 (single isomer, unassigned; (-)) [Example 18, (−)-4-(4-{[2-(1,3-Dimethyl-1H-pyrazol-4-yl)pyrrolidin-1-yl]methyl}phenoxy)-2-hydroxybenzamide] |  |  | 63.6 nM | 1.76 nM | 
Cc1nc([C@@H]2CCCN2Cc2ccc(Oc3ccc(C(N)=O)cc3)cc2)ns1 [Example 10, 4-(4-{[(2S)-2-(5-Methyl-1,2,4-thiadiazol-3-yl)pyrrolidin-1-yl]methyl}phenoxy)benzamide] |  |  | 218 nM | 4 nM | Ki [1, 7]: 218 nM; KOR potency, in words [2]: good potency; selectivity for KOR over MOR, in words [2]: good potency and selectivity; also recorded: more selective than the phenyl examples, Comparators A and B; Ki [2, 8]: 4 nM; Selectivity hMOR/hKOR [2]: 54
Cn1ccc([C@@H]2CCCN2Cc2ccc(Oc3ccc(C(N)=O)cc3F)cc2)n1 [Example 19, 3-fluoro-4-(4-{[(2S)-2-(1-methyl-1H-pyrazol-3-yl)pyrrolidin-1-yl]methyl}phenoxy)benzamide] |  |  | 13.5 nM | 0.999 nM | 
Cc1cc([C@@H]2CCCN2Cc2ccc(Oc3ccc(C(N)=O)c(O)c3)cc2)n(C)n1 [Example 27, 4-(4-{[(2S)-2-(1,3-dimethyl-1H-pyrazol-5-yl)pyrrolidin-1-yl]methyl}phenoxy)-2-hydroxybenzamide] |  |  | 121 nM | 2.07 nM | 
Cn1ccc([C@@H]2CCCN2Cc2ccc(Oc3ccc(C(N)=O)c(O)c3)cc2)n1 [Example 34, 2-hydroxy-4-(4-{[(2S)-2-(1-methyl-1H-pyrazol-3-yl)pyrrolidin-1-yl]methyl}phenoxy) benzamide] |  |  | 3.98 nM | 0.508 nM | 
